≈ marks a conversion by molar mass, not a printed value.

For one test, the system named is Staphylococcus aureus. In words: Antibacterial activity against Staphylococcus aureus ATCC 25923 after 24 hrs by two fold serial dilution method. It counts as functional. Particulars: ATCC 25923, 24 h.
On to `CCCCn1c(Cn2cnc3c(N4CCOCC4)ncnc32)nc2ccccc21`, for which the minimum inhibitory concentration (MIC) is 256 µg/mL (≈ 654 µM).
As to `CCCCCCCCCCCCCCCCn1c(Cn2cnc3c(N4CCOCC4)ncnc32)nc2ccccc21`, the minimum inhibitory concentration (MIC) stood at 256 µg/mL (≈ 457 µM).
The same measure, in the same setting: in the case of `c1ccc(Cn2c(Cn3cnc4c(N5CCOCC5)ncnc43)nc3ccccc32)cc1` it was 512 µg/mL (≈ 1200 µM).

The subject of another test is Pseudomonas aeruginosa. In words: Antibacterial activity against Pseudomonas aeruginosa after 24 hrs by two fold serial dilution method. The format is functional.
Conditions: not given
Turning to `CCCCn1c(Cn2cnc3c(N4CCOCC4)ncnc32)nc2ccccc21`, the MIC stood at 256 µg/mL (≈ 654 µM).
On the same count and under the same terms, in the case of `CCCCCCCCCCCCCCCCn1c(Cn2cnc3c(N4CCOCC4)ncnc32)nc2ccccc21` it was 512 µg/mL (≈ 915 µM); in that of `c1ccc(Cn2c(Cn3cnc4c(N5CCOCC5)ncnc43)nc3ccccc32)cc1`, 256 µg/mL (≈ 602 µM).

Another test relates to Staphylococcus aureus. Description: Antibacterial activity against methicillin-resistant Staphylococcus aureus N315 after 24 hrs by two fold serial dilution method. It counts as functional. The settings on record: N315, 24 h.
For the compound `CCCCn1c(Cn2cnc3c(N4CCOCC4)ncnc32)nc2ccccc21`, 512 µg/mL (≈ 1310 µM) was the least that counted as inhibitory (MIC).
With `CCCCCCCCCCCCCCCCn1c(Cn2cnc3c(N4CCOCC4)ncnc32)nc2ccccc21`, inhibition of growth (MIC) required 512 µg/mL (≈ 915 µM).
The same measure, in the same setting: for `c1ccc(Cn2c(Cn3cnc4c(N5CCOCC5)ncnc43)nc3ccccc32)cc1` the value was 256 µg/mL (≈ 602 µM).

In the next test the test system is Candida albicans. In words: Antifungal activity against Candida albicans ATCC 90023 after 24 hrs by two fold serial dilution method. The format is functional. The settings on record: ATCC 90023, 24 h.
`CCCCn1c(Cn2cnc3c(N4CCOCC4)ncnc32)nc2ccccc21` displayed an MIC80 of 128 µg/mL (≈ 327 µM).
The same measure, in the same setting: in the case of `CCCCCCCCCCCCCCCCn1c(Cn2cnc3c(N4CCOCC4)ncnc32)nc2ccccc21` it was 512 µg/mL (≈ 915 µM); in that of `c1ccc(Cn2c(Cn3cnc4c(N5CCOCC5)ncnc43)nc3ccccc32)cc1`, 256 µg/mL (≈ 602 µM).

A further test has as its system Candida parapsilosis. In words: Antifungal activity against Candida parapsilosis ATCC 22019 after 24 hrs by two fold serial dilution method. Particulars: ATCC 22019, 24 h. It counts as functional.
Turning to `CCCCn1c(Cn2cnc3c(N4CCOCC4)ncnc32)nc2ccccc21`, the MIC80 was 256 µg/mL (≈ 654 µM).
In turn, `CCCCCCCCCCCCCCCCn1c(Cn2cnc3c(N4CCOCC4)ncnc32)nc2ccccc21` yielded an MIC80 of 128 µg/mL (≈ 229 µM). Compared with the last compound, the MIC80 is about 2-fold lower.
On the same count and under the same terms, in the case of `c1ccc(Cn2c(Cn3cnc4c(N5CCOCC5)ncnc43)nc3ccccc32)cc1` it was 512 µg/mL (≈ 1200 µM).

Another test has as its system Aspergillus fumigatus. In words: Antifungal activity against Aspergillus fumigatus after 24 hrs by two fold serial dilution method. It counts as functional.
Conditions: not given
`CCCCn1c(Cn2cnc3c(N4CCOCC4)ncnc32)nc2ccccc21` returned an MIC80 of 256 µg/mL (≈ 654 µM).
`CCCCCCCCCCCCCCCCn1c(Cn2cnc3c(N4CCOCC4)ncnc32)nc2ccccc21`: the MIC80 worked out at 256 µg/mL (≈ 457 µM).
Still for that read-out and setting: in the case of `c1ccc(Cn2c(Cn3cnc4c(N5CCOCC5)ncnc43)nc3ccccc32)cc1` it was 512 µg/mL (≈ 1200 µM).

For another test, the system named is Escherichia coli. Description: Antibacterial activity against Escherichia coli ATCC 25922 after 24 hrs by two fold serial dilution method. The format is functional. The settings on record: ATCC 25922, 24 h.
As for `CCCCn1c(Cn2cnc3c(N4CCOCC4)ncnc32)nc2ccccc21`, the MIC amounted to 128 µg/mL (≈ 327 µM).
The same measure, in the same setting: in the case of `CCCCCCCCCCCCCCCCn1c(Cn2cnc3c(N4CCOCC4)ncnc32)nc2ccccc21` it was 256 µg/mL (≈ 457 µM); in that of `c1ccc(Cn2c(Cn3cnc4c(N5CCOCC5)ncnc43)nc3ccccc32)cc1`, 256 µg/mL (≈ 602 µM).

The subject of the next test is Escherichia coli. Description: Antibacterial activity against Escherichia coli after 24 hrs by two fold serial dilution method. It counts as functional.
Conditions: not given
With `CCCCn1c(Cn2cnc3c(N4CCOCC4)ncnc32)nc2ccccc21`, the MIC amounted to 64 µg/mL (≈ 163 µM).
The compound `CCCCCCCCCCCCCCCCn1c(Cn2cnc3c(N4CCOCC4)ncnc32)nc2ccccc21` returned a minimal inhibitory concentration (MIC) of 512 µg/mL (≈ 915 µM).
On the same count and under the same terms, in the case of `c1ccc(Cn2c(Cn3cnc4c(N5CCOCC5)ncnc43)nc3ccccc32)cc1` it was 256 µg/mL (≈ 602 µM).

Another test concerns Staphylococcus aureus. Description: Antibacterial activity against Staphylococcus aureus after 24 hrs by two fold serial dilution method. It counts as functional.
Conditions: not given
As for `CCCCn1c(Cn2cnc3c(N4CCOCC4)ncnc32)nc2ccccc21`, the MIC came to 256 µg/mL (≈ 654 µM).
`CCCCCCCCCCCCCCCCn1c(Cn2cnc3c(N4CCOCC4)ncnc32)nc2ccccc21`: inhibition of growth (MIC) required 64 µg/mL (≈ 114 µM).
The compound `c1ccc(Cn2c(Cn3cnc4c(N5CCOCC5)ncnc43)nc3ccccc32)cc1` displayed an MIC of 512 µg/mL (≈ 1200 µM).

A further test concerns Pseudomonas aeruginosa. Description: Antibacterial activity against Pseudomonas aeruginosa ATCC 27853 after 24 hrs by two fold serial dilution method. It counts as functional. The settings on record: ATCC 27853, 24 h.
Turning to `CCCCn1c(Cn2cnc3c(N4CCOCC4)ncnc32)nc2ccccc21`, the minimal inhibitory concentration (MIC) turned out to be 128 µg/mL (≈ 327 µM).
Same read-out and setting: for `CCCCCCCCCCCCCCCCn1c(Cn2cnc3c(N4CCOCC4)ncnc32)nc2ccccc21` the value was 256 µg/mL (≈ 457 µM); for `c1ccc(Cn2c(Cn3cnc4c(N5CCOCC5)ncnc43)nc3ccccc32)cc1`, 128 µg/mL (≈ 301 µM).

In the next test the test system is Staphylococcus aureus. Description: Antibacterial activity against Staphylococcus aureus ATCC 29213 after 24 hrs by two fold serial dilution method. It counts as functional. The settings on record: ATCC 29213, 24 h.
The compound `CCCCn1c(Cn2cnc3c(N4CCOCC4)ncnc32)nc2ccccc21` came in with an MIC of 128 µg/mL (≈ 327 µM).
`CCCCCCCCCCCCCCCCn1c(Cn2cnc3c(N4CCOCC4)ncnc32)nc2ccccc21` showed a minimum inhibitory concentration (MIC) of 256 µg/mL (≈ 457 µM). Compared with the last compound, the MIC is about 2-fold higher.
In turn, `c1ccc(Cn2c(Cn3cnc4c(N5CCOCC5)ncnc43)nc3ccccc32)cc1` had an MIC of 256 µg/mL (≈ 602 µM).

For a further test, the system named is Klebsiella pneumoniae. Description: Antibacterial activity against Klebsiella pneumoniae after 24 hrs by two fold serial dilution method. It counts as functional.
Conditions: not given
In the case of `CCCCn1c(Cn2cnc3c(N4CCOCC4)ncnc32)nc2ccccc21`, the MIC is 256 µg/mL (≈ 654 µM).
Same read-out and setting: for `CCCCCCCCCCCCCCCCn1c(Cn2cnc3c(N4CCOCC4)ncnc32)nc2ccccc21` the value was 128 µg/mL (≈ 229 µM); for `c1ccc(Cn2c(Cn3cnc4c(N5CCOCC5)ncnc43)nc3ccccc32)cc1`, 128 µg/mL (≈ 301 µM).

A further test relates to Enterococcus faecalis. In words: Antibacterial activity against Enterococcus faecalis after 24 hrs by two fold serial dilution method. The format is functional.
Conditions: not given
For the compound `CCCCn1c(Cn2cnc3c(N4CCOCC4)ncnc32)nc2ccccc21`, the minimum inhibitory concentration (MIC) worked out at 256 µg/mL (≈ 654 µM).
Same read-out and setting: in the case of `CCCCCCCCCCCCCCCCn1c(Cn2cnc3c(N4CCOCC4)ncnc32)nc2ccccc21` it was 32 µg/mL (≈ 57.2 µM); in that of `c1ccc(Cn2c(Cn3cnc4c(N5CCOCC5)ncnc43)nc3ccccc32)cc1`, 128 µg/mL (≈ 301 µM).

In a further test the test system is Candida tropicalis. In words: Antifungal activity against Candida tropicalis after 24 hrs by two fold serial dilution method. It counts as functional.
Conditions: not given
Consider `CCCCn1c(Cn2cnc3c(N4CCOCC4)ncnc32)nc2ccccc21`, for which the MIC80 was found to be 128 µg/mL (≈ 327 µM).
The same measure, in the same setting: for `CCCCCCCCCCCCCCCCn1c(Cn2cnc3c(N4CCOCC4)ncnc32)nc2ccccc21` the value was 128 µg/mL (≈ 229 µM).
As for `c1ccc(Cn2c(Cn3cnc4c(N5CCOCC5)ncnc43)nc3ccccc32)cc1`, the MIC80 was 128 µg/mL (≈ 301 µM).

For a further test, the system named is Candida albicans. In words: Antifungal activity against Candida albicans after 24 hrs by two fold serial dilution method. It counts as functional.
Conditions: not given
Compound `CCCCn1c(Cn2cnc3c(N4CCOCC4)ncnc32)nc2ccccc21` had an MIC80 of 256 µg/mL (≈ 654 µM).
On the same count and under the same terms, for `CCCCCCCCCCCCCCCCn1c(Cn2cnc3c(N4CCOCC4)ncnc32)nc2ccccc21` the value was 128 µg/mL (≈ 229 µM); for `c1ccc(Cn2c(Cn3cnc4c(N5CCOCC5)ncnc43)nc3ccccc32)cc1`, 256 µg/mL (≈ 602 µM).

Another test relates to Acinetobacter baumannii. Description: Antibacterial activity against Acinetobacter baumannii after 24 hrs by two fold serial dilution method. It counts as functional.
Conditions: not given
As to `CCCCn1c(Cn2cnc3c(N4CCOCC4)ncnc32)nc2ccccc21`, it took 256 µg/mL (≈ 654 µM) to inhibit growth (MIC).
Still for that read-out and setting: in the case of `CCCCCCCCCCCCCCCCn1c(Cn2cnc3c(N4CCOCC4)ncnc32)nc2ccccc21` it was 256 µg/mL (≈ 457 µM); in that of `c1ccc(Cn2c(Cn3cnc4c(N5CCOCC5)ncnc43)nc3ccccc32)cc1`, 256 µg/mL (≈ 602 µM).

By MIC is commonly meant the lowest concentration found to suppress growth. A higher MIC goes with a less susceptible organism. Usually MIC80 stands for the lowest concentration that inhibits either 80% of growth or 80% of the strains tested, depending on the study. Lower therefore signals higher susceptibility.
